US8334235B2, “Thiadiazolyloxyphenylamidines and use thereof as fungicides” (Bayer Cropscience AG, priority 2008, dated 2012)

How the values were obtained:
Assay type in all cases: in vivo
Puccinia triticina [1] = assay: Puccinia triticina test (wheat)/curative; conditions: 192 h, 500 ppm active substance, curative, evaluation 8 days after inoculation, read-out: degree of effectiveness
Method: (§1) • Solvent: 50 parts by weight of N,N-dimethylacetamide • Emulsifier: 1 part by weight of alkylaryl polyglycol ether (polyoxyethylene (16) tristearylphenyl ether)
(§2) To prepare a suitable active substance composition, 1 part by weight of active substance is mixed with the given amounts of solvent and emulsifier and the concentrate is diluted to the desired concentration using water.
For the testing of curative effectiveness, young plants are sprayed with a suspension of spores of Puccinia triticina. The plants remain in an incubation chamber at 20° C. and 100% relative humidity for 48 hours and are then sprayed with the active substance composition in the application rate given. The plants are placed in a greenhouse at a temperature of approximately 20° C. and a relative humidity of approximately 80%.
(§3) Evaluation is carried out 8 days after the inoculation. In this connection, 0% means a degree of effectiveness corresponding to that of the control, while a degree of effectiveness of 100% means that no infestation is observed.

Sphaerotheca fuliginea = assay: Sphaerotheca test (cucumber)/protective; conditions: Podosphaera fuliginea, 168 h, 500 ppm active substance, protective, evaluation 7 days after inoculation, read-out: degree of effectiveness
Method: • Solvent: 49 parts by weight of N,N-dimethylformamide • Emulsifier: 1 part by weight of alkylaryl polyglycol ether (polyoxyethylene (16) tristearylphenyl ether) To prepare a suitable active substance composition, 1 part by weight of active substance is mixed with the given amounts of solvents and emulsifier and the concentrate is diluted to the desired concentration using water. For the testing of protective effectiveness, young cucumber plants are sprayed with the active substance composition in the application rate given. One day after treatment, the plants are inoculated with a suspension of spores of Sphaerotheca fuliginea. The plants are then placed in a greenhouse at 70% relative humidity and a temperature of 23° C. Evaluation is carried out 7 days after the inoculation. In this connection, 0% means a degree of effectiveness corresponding to that of the control, while a degree of effectiveness of 100% means that no infestation is observed.

Puccinia triticina [2] = assay: Puccinia triticina test (wheat)/protective; conditions: 192 h, 500 ppm active substance, protective, evaluation 8 days after inoculation, read-out: degree of effectiveness
Method: as §1, §2
For the testing of protective effectiveness, young plants are sprayed with the active substance composition in the application rate given. After the spray coating has been dried on, the plants are sprayed with a suspension of spores of Puccinia triticina. The plants remain in an incubation chamber at 20° C. and 100% relative humidity for 48 hours. The plants are placed in a greenhouse at a temperature of approximately 20° C. and a relative humidity of approximately 80%.
as §3

Alternaria solani = assay: Alternaria test (tomato)/protective; conditions: 72 h, 100 ppm active substance, protective, evaluation 3 days after inoculation, read-out: degree of effectiveness
Method: • Solvents: 24.5 parts by weight of acetone • 24.5 parts by weight of dimethylacetamide • Emulsifier: 1 part by weight of alkylaryl polyglycol ether (polyoxyethylene (16) tristearylphenyl ether)
To prepare a suitable active substance composition, 1 part by weight of substance is mixed with the given amounts of solvents and emulsifier and the concentrate is diluted to the desired concentration using water.
For the testing of protective effectiveness, young plants are sprayed with the active substance composition in the application rate given. After the spray coating has been dried on, the plants are inoculated with an aqueous suspension of spores of Alternaria solani. The plants are then placed in an incubation chamber at approximately 20° C. and 100% relative humidity.
Evaluation is carried out 3 days after the inoculation. In this connection, 0% means a degree of effectiveness corresponding to that of the control, while a degree of effectiveness of 100% means that no infestation is observed.

| SMILES | pest or weed control at 500 ppm (Puccinia triticina [1]) | pest or weed control at 500 ppm (Sphaerotheca fuliginea) | pest or weed control at 500 ppm (Puccinia triticina [2]) | pest or weed control at 100 ppm (Alternaria solani) |
| --- | --- | --- | --- | --- |
| CCN(C)C=Nc1cc(C)c(Oc2nc([C@@H]3C[C@H]3c3ccccc3)ns2)cc1Cl (relative stereo) [Compound 29, rel-N′-[2-chloro-5-methyl-4-({3-[(1R,2R)-2-phenylcyclopropyl]-1,2,4-thiadiazol-5-yl}oxy)phenyl]-N-ethyl-N-methylimidoformamide] | ≥ 70% | ≥ 70% | ≥ 70% | – |
| Cc1cc(N=CN(C)C(C)C)c(Cl)cc1Oc1nc([C@@H]2C[C@H]2c2ccccc2)ns1 (relative stereo) [Compound 31, rel-N′-[2-chloro-5-methyl-4-({3-[(1R,2R)-2-phenylcyclopropyl]-1,2,4-thiadiazol-5-yl}oxy)phenyl]-N-methyl-N-(propan-2-yl)imidoformamide] | ≥ 70% | ≥ 70% | ≥ 70% | – |
| Cc1cc(N=CN(C)C(C)C)c(Cl)cc1Oc1nc(C2(Cl)CC2)ns1 [Compound 4, N′-(2-chloro-4-{[3-(1-chlorocyclopropyl)-1,2,4-thiadiazol-5-yl]oxy}-5-methylphenyl)-N-methyl-N-propan-2-ylimidoformamide] | ≥ 70% | ≥ 70% | ≥ 70% | – |
| Cc1cc(/N=C/N2CCCCC2)c(Cl)cc1Oc1nc(C2(Cl)CC2)ns1 [Compound 5, 2-chloro-4-{[3-(1-chlorocyclopropyl)-1,2,4-thiadiazol-5-yl]oxy}-5-methyl-N-[(E)-piperidin-1-ylmethylidene]aniline] | ≥ 70% | ≥ 70% | ≥ 70% | – |
| Cc1cc(/N=C/N2CCCCC2)c(Cl)cc1Oc1nc(C(C)c2ccc(Cl)cc2)ns1 (stereo not drawn) [Compound 7, 2-chloro-4-({3-[1-(4-chlorophenyl)ethyl]-1,2,4-thiadiazol-5-yl}oxy)-5-methyl-N-[(E)-piperidin-1-ylmethylidene]aniline] | – | ≥ 70% | – | – |
| CCN(C)/C=N/c1cc(C)c(Oc2nc(CCc3ccc(Cl)cc3)ns2)cc1Cl [Compound 9, N′-[2-chloro-4-({3-[2-(4-chlorophenyl)ethyl]-1,2,4-thiadiazol-5-yl}oxy)-5-methylphenyl]-N-ethyl-N-methylimidoformamide] | ≥ 70% | ≥ 70% | ≥ 70% | – |
| CCN(C)/C=N/c1cc(C)c(Oc2nc(C(C)(C)c3ccc(Cl)cc3)ns2)cc1Cl [Compound 11, N′-[2-chloro-4-({3-[2-(4-chlorophenyl)propan-2-yl]-1,2,4-thiadiazol-5-yl}oxy)-5-methylphenyl]-N-ethyl-N-methylimidoformamide] | ≥ 70% | ≥ 70% | ≥ 70% | ≥ 70% |
| Cc1cc(/N=C\N2CCCCC2)c(Cl)cc1Oc1nc(C(C)(C)c2ccc(Cl)cc2)ns1 [Compound 12, 2-chloro-4-({3-[2-(4-chlorophenyl)propan-2-yl]-1,2,4-thiadiazol-5-yl}oxy)-5-methyl-N-[(Z)-piperidin-1-ylmethylidene]aniline] | – | ≥ 70% | – | ≥ 70% |
| Cc1cc(N=CN(C)C(C)C)c(Cl)cc1Oc1nc(C(C)(C)c2ccc(Cl)cc2)ns1 [Compound 13, N′-[2-chloro-4-({3-[2-(4-chlorophenyl)propan-2-yl]-1,2,4-thiadiazol-5-yl}oxy)-5-methylphenyl]-N-methyl-N-(propan-2-yl)imidoformamide] | ≥ 70% | ≥ 70% | ≥ 70% | ≥ 70% |
| Cc1cc(/N=C\N2CCCCC2)c(Cl)cc1Oc1nc(/C=C/c2ccc(F)cc2)ns1 [Compound 16, 2-chloro-4-({3-[(E)-2-(4-fluorophenyl)ethenyl]-1,2,4-thiadiazol-5-yl}oxy)-5-methyl-N-[(Z)-piperidin-1-ylmethylidene]aniline] | – | ≥ 70% | – | – |
| CCN(C)/C=N/c1cc(C)c(Oc2nc(CCl)ns2)cc1Cl [Compound 19, N′-(2-chloro-4-{[3-(chloromethyl)-1,2,4-thiadiazol-5-yl]oxy}-5-methylphenyl)-N-ethyl-N-methylimidoformamide] | ≥ 70% | – | – | – |
| Cc1cc(N=CN(C)C(C)C)c(Cl)cc1Oc1nc(C2(c3ccc(Cl)cc3)CC2)ns1 [Compound 20, N′-[2-chloro-4-({3-[1-(4-chlorophenyl)cyclopropyl]-1,2,4-thiadiazol-5-yl}oxy)-5-methylphenyl]-N-methyl-N-(propan-2-yl)imidoformamide] | ≥ 70% | ≥ 70% | ≥ 70% | – |
| Cc1cc(/N=C\N2CCCCC2)c(Cl)cc1Oc1nc(C2(c3ccc(Cl)cc3)CC2)ns1 [Compound 21, 2-chloro-4-({3-[1-(4-chlorophenyl)cyclopropyl]-1,2,4-thiadiazol-5-yl}oxy)-5-methyl-N-[(Z)-piperidin-1-ylmethylidene]aniline] | – | ≥ 70% | – | – |
| CCN(C)/C=N/c1cc(C)c(Oc2nc(COc3ccc(Cl)cc3)ns2)cc1Cl [Compound 22, N′-[2-chloro-4-({3-[(4-chlorophenoxy)methyl]-1,2,4-thiadiazol-5-yl}oxy)-5-methylphenyl]-N-ethyl-N-methylimidoformamide] | – | ≥ 70% | – | – |
| C=CCN(C)C=Nc1cc(C)c(Oc2nc(C(C)(C)C)ns2)cc1Cl [Compound 25, N′-{4-[(3-(tert-butyl)-1,2,4-thiadiazol-5-yl)oxy]-2-chloro-5-methylphenyl}-N-methyl-N-(prop-2-en-1-yl)imidoformamide] | ≥ 70% | ≥ 70% | ≥ 70% | – |
| Cc1cc(N=CN(C)CC2CC2)c(Cl)cc1Oc1nc(C(C)(C)C)ns1 [Compound 26, N′-{4-[(3-(tert-butyl)-1,2,4-thiadiazol-5-yl)oxy]-2-chloro-5-methylphenyl}-N-(cyclopropylmethyl)-N-methylimidoformamide] | ≥ 70% | ≥ 70% | ≥ 70% | – |
| CCN(C)/C=N/c1cc(C)c(Oc2nc(C(C)(C)Cc3ccccc3)ns2)cc1Cl [Compound 28, N′-(2-chloro-5-methyl-4-{[3-(2-methyl-1-phenylpropan-2-yl)-1,2,4-thiadiazol-5-yl]oxy}phenyl)-N-ethyl-N-methylimidoformamide] | – | ≥ 70% | ≥ 70% | ≥ 70% |
| CCN(C)C=Nc1cc(C)c(Oc2nc(Cc3cccc(C(F)(F)F)c3)ns2)cc1Cl [Compound 34, N′-[2-chloro-5-methyl-4-({3-[3-(trifluoromethyl)benzyl]-1,2,4-thiadiazol-5-yl}oxy)phenyl]-N-ethyl-N-methylimidoformamide] | ≥ 70% | ≥ 70% | ≥ 70% | – |
| CCN(C)/C=N/c1cc(C)c(Oc2nc(COc3cccc(Cl)c3)ns2)cc1Cl [Compound 35, N′-[2-chloro-4-({3-[(3-chlorophenoxy)methyl]-1,2,4-thiadiazol-5-yl}oxy)-5-methylphenyl]-N-ethyl-N-methylimidoformamide] | ≥ 70% | ≥ 70% | ≥ 70% | – |
| CCN(C)/C=N/c1cc(C)c(Oc2nc(COc3ccccc3Cl)ns2)cc1Cl [Compound 36, N′-[2-chloro-4-({3-[(2-chlorophenoxy)methyl]-1,2,4-thiadiazol-5-yl}oxy)-5-methylphenyl]-N-ethyl-N-methylimidoformamide] | ≥ 70% | ≥ 70% | – | – |
| CCN(C)/C=N/c1cc(C)c(Oc2nc(COc3ccccc3)ns2)cc1Cl [Compound 37, N′-(2-chloro-5-methyl-4-{[3-(phenoxymethyl)-1,2,4-thiadiazol-5-yl]oxy}phenyl)-N-ethyl-N-methylimidoformamide] | – | ≥ 70% | – | – |
